The test system of series [1] is HeLa cells. Further details: method as in PMID 12054363. As to conditions: homogeneous plate-reader assay; read-out: EC50 anticancer effect against HeLa cells; cited from earlier work.
Series [2] has as its system MRC-5 human lung fibroblast cell line. Kind of series: MTT cell viability assay, MRC-5 (healthy). As to conditions: MRC5, 48 h treatment, n = 3. In kind it is cell-based. As for the experimental part: (§1) Cytotoxicity of the metabolites and substrate were evaluated in various cancer cell lines (pancreatic: PANC-1, MIA PaCa-2; prostate: DU 145 and lung: A549) and two healthy cell lines (lung: MRC-5 and kidney: HEK-293) by MTT cell viability assay (Table 3).
(§2) To see cytotoxic effects of the obtained metabolites, a standard MTT (3-(4,5-dimethylthiazol-2-yl)-2,5-diphenyltetrazolium bromide) cell viability assay was performed on human cancer cell lines PANC-1 (pancreatic, ATCC® CRL-1469™), MIA PaCa-2 (pancreatic, ATCC® CRL-1420™), DU 145 (prostate, ATCC® HTB-81™) and A549 (lung, ATCC® CCL-185™) and two healthy cell lines MRC-5 (lung, ATCC® CCL-171™) and HEK-293 (kidney, ATCC® CRL-1573™) according to manufacturer’s instructions (M2128, Sigma-Aldrich®). For this purpose, cells at 80–90% confluency were seeded to 96-well plates as 5-10x10^3 cells/well in Eagle Minimal Essential Medium (EMEM) or Dulbecco Modified Eagle Medium (DMEM); supplemented with 10% FBS and 1% L-glutamine depending on the cell type and incubated in a humidified incubator at 37 °C with 5% CO2 atmosphere for 24 h. After cell adhesion, gitoxigenin and the metabolites were applied to the cells in triplicate with concentrations ranging between 0.001 and 10 µM. After 48 h exposure to certain concentrations of the compounds, medium was replaced with fresh one containing 10% MTT and plates were incubated for 3 h in the dark for the conversion of tetrazolium salts to formazan crystals by mitochondrial metabolism of viable cells. After incubation, formazan crystals were dissolved in DMSO and absorbance of each well were measured at 570 nm via microplate reader (Synergy™ HTX- BioTek, Winooski, VT, USA). Doxorubicin (10 nM, 1 µM and 4 µM) was used as positive control, whereas oleandrin (1 nM, 10 nM and 100 nM) was the second positive control as a potent cardenolide.
(§3) All compounds were dissolved in DMSO (Sigma Aldrich, St. Louis, MO, USA) and the final DMSO concentration applied to cells was 0.02% (v/v), which is non-toxic to cells. The IC50 values of the compounds were calculated by the normalization of optical densities (OD) to negative control DMSO (0.02%, v/v).

Series [3] has as its system Mia PaCa-2 pancreatic cancer cell line. Kind of series: MTT cell viability assay, MIA PaCa-2. In kind it is cell-based. As to conditions: Homo sapiens, 48 h treatment, n = 3. As for the experimental part:
as §1, §2, §3

The subject of series [4] is TK-10 (renal adenocarcinoma). Further details: method as in PMID 14531018. As to conditions: cited from earlier work.
Series [5] deals with PANC-1 human pancreatic cancer cell line. Kind of series: MTT cell viability assay, PANC-1. In kind it is cell-based. The following applies: 48 h treatment, n = 3. As for the experimental part: as §1, §2, §3
Series [6] relates to MCF-7 (breast adenocarcinoma). Details: method as in PMID 14531018. As to conditions: cited from earlier work.
Series [7] concerns A549 human lung cancer cell line. Kind of series: MTT cell viability assay, A549. In kind it is cell-based. The following applies: 48 h treatment, n = 3. As for the experimental part: as §1, §2, §3
Series [8] deals with human nasopharynx carcinoma. Further details: method as in PMID 5014314. The following applies: cited from earlier work.
Another series has as its system UACC-62 (melanoma). Details: method as in PMID 14531018. As to conditions: cited from earlier work.
Series [9] relates to DU 145 human prostate cancer cell line. Kind of series: MTT cell viability assay, DU 145. As to conditions: 48 h treatment, n = 3. The class given is cell-based. As for the experimental part:
as §1, §2, §3

Series [10] concerns A549, DU 145, PANC-1, MIA PaCa-2 cell lines. Kind of series: MTT cell viability assay, four cancer cell lines together. The class given is cell-based. As to conditions: Homo sapiens; range over four cancer cell lines; read-out: IC50 values ranging over A549, DU 145, PANC-1, MIA PaCa-2 cell lines. As for the experimental part: as §1
To see cytotoxic effects of the obtained metabolites, a standard MTT (3-(4,5-dimethylthiazol-2-yl)-2,5-diphenyltetrazolium bromide) cell viability assay was performed on human cancer cell lines PANC-1 (pancreatic, ATCC® CRL-1469™), MIA PaCa-2 (pancreatic, ATCC® CRL-1420™), DU 145 (prostate, ATCC® HTB-81™) and A549 (lung, ATCC® CCL-185™) and two healthy cell lines MRC-5 (lung, ATCC® CCL-171™) and HEK-293 (kidney, ATCC® CRL-1573™) according to manufacturer’s instructions (M2128, Sigma-Aldrich®). […] After incubation, formazan crystals were dissolved in DMSO and absorbance of each well were measured at 570 nm via microplate reader (Synergy™ HTX- BioTek, Winooski, VT, USA). […]
as §3

A further series has as its system dengue virus. Further details: method as in PMID 22155902. As to conditions: immunofluorescence screen, hit criteria ≥40% inhibition; cited from earlier work.
Series [11] concerns HEK-293 human embryonic kidney cell line. Kind of series: MTT cell viability assay, HEK-293 (healthy). The following applies: for IC50: Homo sapiens, HEK293, healthy cell line, 48 h treatment, MTT, n = 3. In kind it is cell-based. As for the experimental part:
as §1, §2, §3

In series [12] the test system is HeLa cells. Details: method as in PMID 5589524. The following applies: cited from earlier work.
Series [13] has as its system infectious virus production (COVID-19). Further details: method as in doi:10.1101/2020.07.15.203489. The following applies: in vitro, cited from earlier work.

Values after ≈ are worked out from the molar mass of the structure shown. Like-named read-outs stand apart in the source and are kept apart here. Bounds are passed on as bounds.

With `C[C@]12CC[C@H](O)C[C@H]1CCC1C2CC[C@]2(C)[C@@H](C3=CC(=O)OC3)[C@@H](O)C[C@]12O` (stereo partly drawn) [Gitoxigenin, 4-((3S,5R,10S,13R,14S,16S,17R)-3,14,16-Trihydroxy-10,13-dimethylhexadecahydro-1H-cyclopenta[a]phenanthren-17-yl) furan-2(5H)-one], the EC50 in the series on HeLa cells [1] is 2.1 µM. Besides, the IC50 in [2] was 0.815 µM; in [3], 3.1 µM; in series [4], 0.415 ± 0.03 µM; in [5], 1.53 µM; in [6], 1.8 ± 0.32 µM; in [7] it was 2.19 µM. Moreover, the IC50 is 2.83 ± 0.17 µM in the series with UACC-62 (melanoma), 4.08 µM in [9], 1.53 to 4.08 µM in series [10] and 7.6 µM in series [11]. In series [8], the “ED50 in vitro inhibitory activity against human nasopharynx carcinoma” value is 2.3 µg/mL (≈ 5.89 µM). For the same compound, in the series on dengue virus, the “inhibition of dengue virus” value is 49.01%. Further, in the series with HeLa cells [12], the “growth inhibitory effect on HeLa cells” value is recorded as 2.25 µg/mL.

With `COc1cccc2c1C(=O)c1c(O)c3c(c(O)c1C2=O)C[C@@](O)(C(=O)CO)C[C@@H]3O[C@H]1C[C@H](N)[C@H](O)[C@H](C)O1` [Doxorubicin, reference compound], the IC50 is 0.865 µM in series [2]; 0.59 µM in series [3]; above 10 µM in series [5]; 0.62 µM in series [7]; 0.19 µM in series [9]; 0.587 µM in series [11].

For `C[C@]12CC[C@@H](O)C[C@H]1CCC1C2CC[C@]2(C)[C@@H](C3=CC(=O)OC3)[C@@H](O)C[C@]12O` (stereo partly drawn) [Compound 5, 4-((3R,5R,10S,13R,14S,16S,17R)-3,14,16-Trihydroxy-10,13-dimethylhexadecahydro-1H-cyclopenta[a]phenanthren-17-yl)furan-2(5H)-one], the IC50 in [2], in series [3], in series [5], in series [7], in [9] and in series [11] was above 10 µM in each case.

With `C[C@]12CCC(=O)C[C@H]1CCC1C2CC[C@]2(C)[C@@H](C3=CC(=O)OC3)[C@@H](O)C[C@]12O` (stereo partly drawn) [Compound 2, 4-((5R,10S,13R,14S,16S,17R)-14,16-Dihydroxy-10,13-dimethyl-3-oxohexadecahydro-1H-cyclopenta[a]phenanthren-17-yl)furan-2(5H)-one], the IC50 in series [2], in [3], in [5], in series [7], in [9] and in [11] was above 10 µM throughout.

Turning to `CO[C@H]1C[C@H](O[C@H]2CC[C@@]3(C)[C@H](CC[C@@H]4[C@@H]3CC[C@]3(C)[C@@H](C5=CC(=O)OC5)[C@@H](OC(C)=O)C[C@]43O)C2)O[C@@H](C)[C@@H]1O` [Oleandrin, reference compound], the IC50 turned out to be 0.0173 µM in series [2]; 0.035 µM in [3]; 0.0387 µM in series [5]; 0.0426 µM in series [7]; 0.021 µM in [9]; 0.073 µM in [11]. The “reduction in infectious virus production” value is 78 fold in [13] (0.05 µg/mL) and 100 fold in [13] (0.1 µg/mL).

In the case of `C[C@]12CCC(=O)C[C@H]1CC(O)C1C2CC(O)[C@]2(C)[C@@H](C3=CC(=O)OC3)[C@@H](O)C[C@]12O` (stereo partly drawn) [Compound 3, 4-((5R,10S,13S,14S,16S,17R)-7,12,14,16-Tetrahydroxy-10,13-dimethyl-3-oxohexadecahydro-1H-cyclopenta[a]phenanthren-17-yl)furan-2(5H)-one], the IC50 in series [2], in series [3], in series [5], in series [7], in series [9] and in series [11] was above 10 µM each time.

As to `C[C@]12CCC(=O)C[C@H]1CCC1C2CC(O)[C@]2(C)[C@@H](C3=CC(=O)OC3)[C@@H](O)C[C@]12O` (stereo partly drawn) [Compound 7, 4-((5R,10S,13S,14S,16S,17R)-12,14,16-Trihydroxy-10,13-dimethyl-3-oxohexadecahydro-1H-cyclopenta[a]phenanthren-17-yl)furan-2(5H)-one], the half-inhibitory concentration (IC50) in series [2] was above 10 µM; in [3] it was above 10 µM; in series [5] it was 6.24 µM; in series [7], above 10 µM; in series [9], above 10 µM; in series [11], above 10 µM.

With `COC1(OC)CC[C@]2(C)C3CC[C@]4(C)[C@@H](C5=CC(=O)OC5)[C@@H](O)C[C@]4(O)C3C(O)C[C@@H]2C1` (stereo partly drawn) [Compound 4, 4-((5R,10S,13R,14S,16S,17R)-7,14,16-Trihydroxy-3,3-dimethoxy-10,13-dimethylhexadecahydro-1H-cyclopenta[a]phenanthren-17-yl)furan-2(5H)-one], the IC50 in [2], in series [3], in [5], in [7], in [9] and in [11] was above 10 µM each time.

Take `C[C@]12CC[C@@H](O)C[C@H]1CCC1C2CC(O)[C@]2(C)[C@@H](C3=CC(=O)OC3)[C@@H](O)C[C@]12O` (stereo partly drawn) [Compound 8, 4-((3R,5R,10S,13S,14S,16S,17R)-3,12,14,16-Tetrahydroxy-10,13-dimethylhexadecahydro-1H-cyclopenta[a]phenanthren-17-yl)furan-2(5H)-one]: the IC50 is 9.35 µM in [2]; 3.4 µM in series [3]; 1.95 µM in [5]; 8.25 µM in series [7]; above 10 µM in series [9]; above 10 µM in series [11]. Further, the “toxicity on healthy cell line HEK-293” value in [11] (up to concentration of 10 µM) is on record as “without causing toxicity”.

On to `C[C@]12CCC(=O)C[C@H]1CC(O)C1C2CC[C@]2(C)[C@@H](C3=CC(=O)OC3)[C@@H](O)C[C@]12O` (stereo partly drawn) [Compound 1, 4-((5R,10S,13R,14S,16S,17R)-7,14,16-Trihydroxy-10,13-dimethyl-3-oxohexadecahydro-1H-cyclopenta[a]phenanthren-17-yl)furan-2(5H)-one], for which the IC50 in series [2], in [3], in [5], in [7], in series [9] and in series [11] was above 10 µM each time.

`C[C@]12CC[C@@H](O)C[C@H]1CC(O)C1C2CC[C@]2(C)[C@@H](C3=CC(=O)OC3)[C@@H](O)C[C@]12O` (stereo partly drawn) [Compound 6, 4-((3R,5S,10S,13R,14S,16S,17R)-3,7,14,16-Tetrahydroxy-10,13-dimethylhexadecahydro-1H-cyclopenta[a]phenanthren-17-yl)furan-2(5H)-one]: the IC50 in [2], in series [3], in series [5], in series [7], in [9] and in series [11] was above 10 µM each time.

The record behind these values is PMC8161373, “New Cardenolides from Biotransformation of Gitoxigenin by the Endophytic Fungus Alternaria eureka 1E1BL1: Characterization and Cytotoxic Activities” (Molecules, 2021).
